Molecular target: T1, SYK (Homo sapiens, UniProt P43405)
T1 construct: 2.5 nM SYK, 400 nM Biotin-Aha-Aha-KEDPDYEWPSAKK and 10 μM ATP
Assay: SYK Flash Plate Assay (enzyme assay)
Type: biochemical
Description: The kinase assay is performed either as 384-well Flashplate assay (for e.g. Topcount measurement) or as 384-well Image-Flashplate assay (for LEADseeker measurement).
2.5 nM SYK, 400 nM Biotin-Aha-Aha-KEDPDYEWPSAKK and 10 μM ATP (spiked with 0.3 μCi 33P-ATP/well) are incubated in a total volume of 50 μl (60 mM Hepes, 10 mM MgCl2, 1.2 mM Dithiothreitol, 0.02% Brij35, 0.1% BSA, pH 7.5) with or without test compound for 1 hours at 30° C. The reaction is stopped with 25 μl 200 mM EDTA. After 30 Min at 30° C. the liquid is removed and each well washed thrice with 100 μl 0.9% sodium chloride solution. Non-specific reaction is determined in presence of 0.1 μM Staurosporine. Radioactivity is measured with Topcount (when using Flashplates) or with LEADseeker (when using Image-Flashplates) respectively. Results (e.g. IC50-values) are calculated with program tools provided by the IT-department (e.g. Symyx Assay Explorer, Genedata Screener).

| SMILES | IC50 |
| --- | --- |
| COc1cc(-c2cc3nccc(-c4ccc5ncn(CCN)c5c4)c3o2)cc(OC)c1OC [Compound A8, 2-{6-[2-(3,4,5-trimethoxy-phenyl)-furo[3,2-b]pyridin-7-yl]-benzoimidazol-1-yl}-ethylamine] | 0.3 to 3 µM |
| COc1cc(O)ccc1-c1cc2nccc(-c3cccc(C(=O)N[C@@H]4CCCC[C@@H]4N)c3)c2o1 [Compound A15, N-((1R,2S)-2-amino-cyclohexyl)-3-[2-(4-hydroxy-2-methoxy-phenyl)furo[3,2-b]pyridin-7-yl]-benzamide] | 0.3 to 3 µM |
| COc1cc(-c2cc3nccc(-c4ccc5c(c4)ncn5CCN)c3o2)cc(OC)c1OC [Compound A3, 2-{5-[2-(3,4,5-Trimethoxy-phenyl)-furo[3,2-b]pyridin-7-yl]-benzoimidazol-1-yl}-ethylamine] | 0.3 to 3 µM |
| COc1cc(OCCN)ccc1-c1cc2nccc(-c3ccc4[nH]cnc4c3)c2o1 [Compound A18, 2-{4-[7-(1H-benzoimidazol-5-yl)-furo[3,2-b]pyridin-2-yl]-3-methoxy-phenoxy}-ethylamine] | 0.3 to 3 µM |
| COc1cc(-c2cc3nccc(NCC4CCCNC4)c3o2)cc(OC)c1OC (centres unmarked) [Compound A2, Piperidin-3-ylmethyl-[2-(3,4,5-trimethoxy-phenyl)-furo[3,2-b]pyridin-7-yl]-amine] | 3 to 50 µM |
| COC[C@@H](CNC(=O)c1cccc(-c2ccnc3cc(-c4cc(OC)c(OC)c(OC)c4)oc23)c1)NS(C)(=O)=O [Compound A10, N—((R)-2-methanesulfonylamino-3-methoxy-propyl)-3-[2-(3,4,5-trimethoxyphenyl)-furo[3,2-b]pyridin-7-yl]-benzamide] | 0.3 to 3 µM |
| COc1cc(-c2cc3nccc(-c4cccc(C(=O)N[C@H]5CCCC[C@H]5O)c4)c3o2)cc(OC)c1OC [Compound A11, N-((1S,2R)-2-hydroxy-cyclohexyl)-3-[2-(3,4,5-trimethoxy-phenyl)-furo[3,2-b]pyridin-7-yl]-benzamide] | 0.3 to 3 µM |
| COC[C@H](N)CNC(=O)c1cccc(-c2ccnc3cc(-c4cc(OC)c(OC)c(OC)c4)oc23)c1 [Compound A5, N—((R)-2-amino-3-methoxy-propyl)-3-[2-(3,4,5-trimethoxy-phenyl)-furo[3,2-b]pyridin-7-yl]-benzamide] | 0.3 to 3 µM |
| COc1cc(-c2cc3nccc(-c4cccc(C(=O)NCC(O)CO)c4)c3o2)cc(OC)c1OC (centres unmarked) [Compound A20, N-(2,3-dihydroxy-propyl)-3-[2-(3,4,5-trimethoxy-phenyl)-furo[3,2-b]pyridin-7-yl]-benzamide] | 3 to 50 µM |
| COCC(O)CNC(=O)c1cccc(-c2ccnc3cc(-c4cc(OC)c(OC)c(OC)c4)oc23)c1 (centres unmarked) [Compound A16, N-(2-hydroxy-3-methoxy-propyl)-3-[2-(3,4,5-trimethoxy-phenyl)-furo[3,2-b]pyridin-7-yl]-benzamide] | 3 to 50 µM |

Second part, the compound after the results:

| IC50 | SMILES |
| --- | --- |
| 0.3 to 3 µM | COc1cc(-c2cc3nccc(-c4ccc5c(c4)[nH]c(=O)n5CCN)c3o2)cc(OC)c1OC [Compound A37, 1-(2-amino-ethyl)-5-[2-(3,4,5-trimethoxy-phenyl)-furo[3,2-b]pyridin-7-yl]-1,3-dihydro-benzoimidazol-2-one] |
| 3 to 50 µM | COc1cc(-c2cc3nccc(-c4cccc(C(=O)N[C@@H]5CCCC[C@@H]5NC(C)=O)c4)c3o2)cc(OC)c1OC [Compound A34, N-((1R,2S)-2-acetylamino-cyclohexyl)-3-[2-(3,4,5-trimethoxy-phenyl)furo[3,2-b]pyridin-7-yl]-benzamide] |
| 0.3 to 3 µM | CCn1cc(-c2ccnc3cc(-c4cc(C(N)=O)ccc4OC)oc23)cn1 [Compound A63, 3-[7-(1-ethyl-1H-pyrazol-4-yl)-furo[3,2-b]pyridin-2-yl]-4-methoxy-benzamide] |
| 0.3 to 3 µM | COc1ccc(C(N)=O)cc1-c1cc2nccc(-c3cc4[nH]cnc4cc3OC)c2o1 [Compound A89, 4-Methoxy-3-[7-(6-methoxy-3H-benzoimidazol-5-yl)-furo[3,2-b]pyridin-2-yl]-benzamide] |
| 0.1 to 0.3 µM | COc1ccc(C(N)=O)cc1-c1cc2nccc(-c3c(OC)cncc3OC)c2o1 [Compound A104, 3-[7-(3,5-dimethoxy-pyridin-4-yl)-furo[3,2-b]pyridin-2-yl]-4-methoxybenzamide] |
| 3 to 50 µM | COc1cc(-c2cc3nccc(-c4ccc(N(C)C)cc4)c3o2)cc(OC)c1OC [Compound A65, dimethyl-{4-[2-(3,4,5-trimethoxy-phenyl)-furo[3,2-b]pyridin-7-yl]-phenyl}-amine] |
| 3 to 50 µM | CCc1ccccc1-c1cc2nccc(-c3cccc(C(=O)N[C@@H]4CCCC[C@@H]4N)c3)c2o1 [Compound A49, N-((1R,2S)-2-amino-cyclohexyl)-3-[2-(2-ethyl-phenyl)-furo[3,2-b]pyridin-7-yl]-benzamide] |
| 0.1 to 0.3 µM | COc1cccc(OC)c1-c1ccnc2cc(-c3cc(C(N)=O)ccc3N)oc12 [Compound A107, 4-amino-3-[7-(2,6-dimethoxy-phenyl)-furo[3,2-b]pyridin-2-yl]-benzamide] |
| 0.1 to 0.3 µM | COc1ccc(C(C)O)cc1-c1ccnc2cc(-c3cc(OC)c(OC)c(OC)c3)oc12 (centres unmarked) [Compound A21, 1-{4-methoxy-3-[2-(3,4,5-trimethoxy-phenyl)-furo[3,2-b]pyridin-7-yl]-phenyl}-ethanol] |
| 0.3 to 3 µM | COc1ccc(C(N)=O)cc1-c1cc2nccc(-c3cccc(C(=O)N[C@@H]4CCCC[C@@H]4N)c3)c2o1 [Compound A46, 3-{7-[3-((1R,2S)-2-amino-cyclohexylcarbamoyl)-phenyl]-furo[3,2-b]pyridin-2-yl}-4-methoxy-benzamide] |
| 0.3 to 3 µM | COc1ccc(C(N)=O)cc1-c1cc2nccc(-c3cc(C(=O)NCCN)ccc3OC)c2o1 [Compound A79, 3-[7-[5-(2-aminoethylcarbamoyl)-2-methoxy-phenyl]furo[3,2-b]pyridin-2-yl]-4-methoxy-benzamide] |
| < 0.1 µM | COc1ccc(C(N)=O)cc1-c1cc2nccc(-c3ccnc(N[C@@H]4CCCC[C@@H]4N)c3)c2o1 [Compound A97, 3-{7-[2-((1R,2S)-2-amino-cyclohexylamino)-pyridin-4-yl]-furo[3,2-b]pyridin-2-yl}-4-methoxy-benzamide] |
| 3 to 50 µM | CCc1ccc(OC)cc1-c1cc2nccc(-c3ccc4[nH]cnc4c3)c2o1 [Compound A36, 7-(1H-benzoimidazol-5-yl)-2-(2-ethyl-5-methoxy-phenyl)-furo[3,2-b]pyridine] |
| 3 to 50 µM | COc1cc(-c2cc3nccc(-c4cccc(C(=O)N[C@@H]5CCCC[C@@H]5NS(C)(=O)=O)c4)c3o2)cc(OC)c1OC [Compound A33, N-((1R,2S)-2-methanesulfonylamino-cyclohexyl)-3-[2-(3,4,5-trimethoxyphenyl)-furo[3,2-b]pyridin-7-yl]-benzamide] |
| 0.3 to 3 µM | COc1cc(-c2cc3ncc(F)c(-c4cccc(C(=O)N[C@@H]5CCCC[C@@H]5N)c4)c3o2)cc(OC)c1OC [Compound A47, N-((1R,2S)-2-amino-cyclohexyl)-3-[6-fluoro-2-(3,4,5-trimethoxy-phenyl)furo[3,2-b]pyridin-7-yl]-benzamide] |
| 3 to 50 µM | NC(=O)c1ccc(-c2cc3nccc(-c4cccc(C(=O)N[C@@H]5CCCC[C@@H]5N)c4)c3o2)c(F)c1 [Compound A73, 4-{7-[3-((1R,2S)-2-amino-cyclohexylcarbamoyl)-phenyl]-furo[3,2-b]pyridin-2-yl}-3-fluoro-benzamide] |

Source: patent US20150038527A1, “FUROPYRIDINE DERIVATIVES” (Merck Patent GmbH, priority 2012, published 2015)
